Reference: ChEMBL document CHEMBL4334526, “Synthesis of Peptoid-Based Class I-Selective Histone Deacetylase Inhibitors with Chemosensitizing Properties” (J Med Chem, 2019)
Activity calls are given as the source filed them. No cut-off for these calls is given here.

Columns and labels:
Histone deacetylase 2 = Histone deacetylase 2 (Homo sapiens, UniProt Q92769); assay: Inhibition of recombinant human full length C-terminal FLAG-tagged HDAC2 expressed in baculovirus infected Sf9 insect cells at 3.33 uM using Boc-Lys(epsilon-acetyl)-AMC as substrate incubated for 90 mins by fluorescence assay relative to control
CAL-27 [1] = assay: Induction of apoptosis in human CAL27 cells assessed as caspase-3/7 activation at […] measured after 48 hrs by CellEvent caspase 3/7 green detection reagent/Hoechst 33342 staining based imaging analysis relative to control; assay type: functional
[2] = molecular target: T1, Class 1 histone deacetylase (Homo sapiens, UniProt Q13547+O15379+Q92769+Q9BY41); assay: Inhibition of class 1 HDAC in human Cal27CisR cells assessed as increase in histone H3 acetylation at […] measured after 24 hrs by immunoblot analysis; assay type: cell-based
[3] = molecular target: T1, Class 1 histone deacetylase; assay: Inhibition of class 1 HDAC in human Cal27CisR cells assessed as potentiation of cisplatin-induced cytotoxicity by measuring cisplatin IC50 at […] preincubated for 48 hrs followed by cisplatin addition and measured after 72 hrs by MTT assay (reference value: 63.2 uM); assay type: cell-based
[4] = molecular target: T1, Class 1 histone deacetylase; assay: (§1) Inhibition of class 1 HDAC in human Cal27CisR cells assessed as potentiation of cisplatin-induced apoptosis assessed as increase in caspase-3/7 activation at […] preincubated for 48 hrs followed by cisplatin addition and measured after 24 hrs by CellEvent caspase 3/7 green detection reagent/Hoechst 33342 staining based imaging analysis; assay type: cell-based
[5] = molecular target: T1, Class 1 histone deacetylase; assay: as §1, with “in human CAL27 cells assessed” for “in human Cal27CisR cells assessed”, “24 hrs in presence of pan caspase inhibitor QVD by CellEvent” for “24 hrs by CellEvent”; assay type: cell-based; conditions: CAL-27
[6] = molecular target: T1, Class 1 histone deacetylase; assay: Inhibition of class 1 HDAC in human CAL27 cells assessed as potentiation of cisplatin-induced cytotoxicity by measuring fold reduction in cisplatin IC50 at 5 uM preincubated for 48 hrs followed by cisplatin addition and measured after 72 hrs by MTT assay relative to cisplatin IC50; assay type: cell-based; conditions: CAL-27
[7] = molecular target: T1, Class 1 histone deacetylase; assay: Inhibition of class 1 HDAC in human CAL27 cells assessed as potentiation of cisplatin-induced cytotoxicity by measuring combination index at 5 uM in presence of 10 uM cisplatin by MTT assay based Chou-Talalay analysis; assay type: cell-based; conditions: CAL-27
[8] = molecular target: T1, Class 1 histone deacetylase; assay: Inhibition of class 1 HDAC in human CAL27 cells assessed as potentiation of cisplatin-induced cytotoxicity by measuring combination index at 5 uM in presence of […] cisplatin by MTT assay based Chou-Talalay analysis; assay type: cell-based; conditions: CAL-27
[9] = molecular target: T1, Class 1 histone deacetylase; assay: Inhibition of class 1 HDAC in human CAL27 cells assessed as potentiation of cisplatin-induced cytotoxicity by measuring combination index at 5 uM in presence of 0.1 uM cisplatin by MTT assay based Chou-Talalay analysis; assay type: cell-based; conditions: CAL-27
[10] = molecular target: T1, Class 1 histone deacetylase; assay: Inhibition of class 1 HDAC in human Cal27CisR cells assessed as potentiation of cisplatin-induced cytotoxicity by measuring combination index at 5 uM in presence of […] cisplatin by MTT assay based Chou-Talalay analysis; assay type: cell-based
[11] = molecular target: T1, Class 1 histone deacetylase; assay: Inhibition of class 1 HDAC in human Cal27CisR cells assessed as potentiation of cisplatin-induced cytotoxicity by measuring combination index at 5 uM in presence of 10 uM cisplatin by MTT assay based Chou-Talalay analysis; assay type: cell-based
[12] = molecular target: T1, Class 1 histone deacetylase; assay: Inhibition of class 1 HDAC in human Cal27CisR cells assessed as potentiation of cisplatin-induced cytotoxicity by measuring combination index at 5 uM in presence of 100 uM cisplatin by MTT assay based Chou-Talalay analysis; assay type: cell-based
CAL-27 [13] = assay: Induction of apoptosis in human CAL27 cells assessed as accumulation at sub-G1 phase at 5 uM after 48 hrs by propidium iodide staining based flow cytometry; assay type: functional, cell-based
[14] = molecular target: T1, Class 1 histone deacetylase; assay: Inhibition of class 1 HDAC in human CAL27 cells assessed as potentiation of cisplatin-induced apoptosis by measuring increase in accumulation at sub-G1 phase at 5 uM preincubated for 48 hrs followed by cisplatin addition and measured after 24 hrs by propidium iodide staining based flow cytometry; assay type: cell-based; conditions: CAL-27
[15] = molecular target: T1, Class 1 histone deacetylase; assay: Inhibition of class 1 HDAC in human CAL27 cells assessed as potentiation of cisplatin-induced apoptosis assessed as increase in caspase-3/7 activation at 5 uM preincubated for 48 hrs followed by cisplatin addition and measured after 24 hrs by CellEvent caspase 3/7 green detection reagent/Hoechst 33342 staining based imaging analysis; assay type: cell-based; conditions: CAL-27
CAL-27 [16] = assay: Induction of apoptosis in human CAL27 cells assessed as accumulation at sub-G1 phase at 0.5 uM after 48 hrs by propidium iodide staining based flow cytometry relative to control; assay type: functional
[17] = Induction of apoptosis in human Cal27CisR cells assessed as accumulation at sub-G1 phase at 100 uM measured after 48 hrs by propidium iodide staining based flow cytometry relative to control; assay type: functional
[18] = Induction of apoptosis in human Cal27CisR cells assessed as caspase-3/7 activation at 0.5 uM measured after 48 hrs by CellEvent caspase 3/7 green detection reagent/Hoechst 33342 staining based imaging analysis relative to control; assay type: functional
[19] = molecular target: T1, Class 1 histone deacetylase; assay type: cell-based; conditions: cal-27
[20] = molecular target: T1, Class 1 histone deacetylase; conditions: CAL-27
Description: Inhibition of class 1 HDAC in human CAL27 cells assessed as potentiation of cisplatin-induced cytotoxicity by measuring combination index at 0.25 uM in presence of 0.32 uM cisplatin by MTT assay based Chou-Talalay analysis

[21] = molecular target: T1, Class 1 histone deacetylase; conditions: CAL-27; remark: listed apart in the source
Description: Inhibition of class 1 HDAC in human CAL27 cells assessed as potentiation of cisplatin-induced cytotoxicity by measuring combination index at 0.25 uM in presence of 0.1 uM cisplatin by MTT assay based Chou-Talalay analysis

[22] = molecular target: T1, Class 1 histone deacetylase; conditions: CAL-27; remark: listed apart in the source
Description: Inhibition of class 1 HDAC in human CAL27 cells assessed as potentiation of cisplatin-induced cytotoxicity by measuring combination index at 0.1 uM in presence of 0.1 uM cisplatin by MTT assay based Chou-Talalay analysis

[23] = molecular target: T1, Class 1 histone deacetylase; conditions: CAL-27; remark: listed apart in the source
Description: Inhibition of class 1 HDAC in human CAL27 cells assessed as potentiation of cisplatin-induced cytotoxicity by measuring combination index at 0.25 uM in presence of 3.2 uM cisplatin by MTT assay based Chou-Talalay analysis

[24] = molecular target: T1, Class 1 histone deacetylase
[25] = molecular target: T1, Class 1 histone deacetylase; remark: listed apart in the source
Description: Inhibition of class 1 HDAC in human Cal27CisR cells assessed as potentiation of cisplatin-induced cytotoxicity by measuring combination index at 0.10 uM in presence of 100 uM cisplatin by MTT assay based Chou-Talalay analysis

[26] = molecular target: T1, Class 1 histone deacetylase; remark: listed apart in the source
Description: Inhibition of class 1 HDAC in human Cal27CisR cells assessed as potentiation of cisplatin-induced cytotoxicity by measuring combination index at 0.25 uM in presence of 3.2 uM cisplatin by MTT assay based Chou-Talalay analysis

[27] = molecular target: T1, Class 1 histone deacetylase; remark: listed apart in the source

T1 sequence (O15379 whole entry, looked up): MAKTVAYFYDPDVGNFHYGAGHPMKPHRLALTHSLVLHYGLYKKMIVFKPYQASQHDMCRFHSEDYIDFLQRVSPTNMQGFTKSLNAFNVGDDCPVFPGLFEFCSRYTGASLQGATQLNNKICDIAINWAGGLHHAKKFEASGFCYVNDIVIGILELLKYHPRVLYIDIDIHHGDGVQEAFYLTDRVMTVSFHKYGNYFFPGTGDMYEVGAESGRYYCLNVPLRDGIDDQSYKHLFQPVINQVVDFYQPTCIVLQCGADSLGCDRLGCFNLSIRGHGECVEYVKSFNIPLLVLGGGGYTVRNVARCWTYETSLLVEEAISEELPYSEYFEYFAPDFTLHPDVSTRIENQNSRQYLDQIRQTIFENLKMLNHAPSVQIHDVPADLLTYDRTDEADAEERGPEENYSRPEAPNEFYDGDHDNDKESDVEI
T1 sequence (Q13547 whole entry, looked up): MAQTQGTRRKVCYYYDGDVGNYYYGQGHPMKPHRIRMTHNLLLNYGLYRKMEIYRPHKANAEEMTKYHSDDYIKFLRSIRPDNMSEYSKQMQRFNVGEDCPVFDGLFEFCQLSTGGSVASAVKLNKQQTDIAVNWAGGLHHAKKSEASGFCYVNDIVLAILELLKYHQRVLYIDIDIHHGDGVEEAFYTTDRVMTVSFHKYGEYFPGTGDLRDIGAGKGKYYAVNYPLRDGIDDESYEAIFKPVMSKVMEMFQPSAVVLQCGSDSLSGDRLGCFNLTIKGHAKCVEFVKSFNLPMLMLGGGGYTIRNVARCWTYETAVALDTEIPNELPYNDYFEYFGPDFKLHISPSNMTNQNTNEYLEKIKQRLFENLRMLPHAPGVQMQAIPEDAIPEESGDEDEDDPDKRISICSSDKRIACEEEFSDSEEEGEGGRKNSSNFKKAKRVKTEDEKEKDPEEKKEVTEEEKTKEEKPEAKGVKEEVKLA
T1 sequence (Q92769 whole entry, looked up): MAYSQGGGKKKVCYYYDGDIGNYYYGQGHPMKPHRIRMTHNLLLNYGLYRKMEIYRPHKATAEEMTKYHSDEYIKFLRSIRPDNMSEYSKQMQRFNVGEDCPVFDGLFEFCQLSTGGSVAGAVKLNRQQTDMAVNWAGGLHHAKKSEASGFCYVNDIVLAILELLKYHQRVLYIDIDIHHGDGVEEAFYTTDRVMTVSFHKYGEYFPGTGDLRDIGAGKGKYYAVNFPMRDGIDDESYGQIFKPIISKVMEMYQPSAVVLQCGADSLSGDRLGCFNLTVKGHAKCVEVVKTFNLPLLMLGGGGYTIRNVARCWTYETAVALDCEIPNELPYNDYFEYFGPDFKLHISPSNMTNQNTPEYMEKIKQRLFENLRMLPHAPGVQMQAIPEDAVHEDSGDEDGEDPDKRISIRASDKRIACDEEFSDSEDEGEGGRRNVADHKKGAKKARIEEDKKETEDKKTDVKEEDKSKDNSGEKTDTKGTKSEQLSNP
T1 sequence (Q9BY41 whole entry, looked up): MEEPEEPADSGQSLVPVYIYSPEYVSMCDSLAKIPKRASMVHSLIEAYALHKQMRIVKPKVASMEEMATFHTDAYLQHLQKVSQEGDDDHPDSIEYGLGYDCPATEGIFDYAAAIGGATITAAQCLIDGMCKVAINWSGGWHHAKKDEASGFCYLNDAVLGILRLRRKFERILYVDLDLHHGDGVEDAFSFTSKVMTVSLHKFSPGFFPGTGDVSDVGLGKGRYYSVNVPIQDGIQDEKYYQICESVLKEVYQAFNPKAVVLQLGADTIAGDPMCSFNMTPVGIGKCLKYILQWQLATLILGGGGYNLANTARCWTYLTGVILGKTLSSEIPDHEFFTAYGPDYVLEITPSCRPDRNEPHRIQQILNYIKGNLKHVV
Histone deacetylase 2, sequence (Q92769 whole entry): as the sequence (Q92769 whole entry, looked up) above

## Cc1cc(C)cc(C(=O)N(CC(=O)NCc2ccccc2)Cc2ccc(C(=O)Nc3cc(-c4ccccc4)ccc3N)cc2)c1
Histone deacetylase 2
  inhibition: 34%
CAL-27 [1]
  Activity: 9.47%
[2]
  inhibition: Active
[3]
  IC50: 12 µM
[4]
  inhibition: Active
[5]
  inhibition: inactive

## Cc1cc(C)cc(C(=O)N(CCCCCC(=O)Nc2cc(-c3ccccc3)ccc2N)CC(=O)NCc2ccccc2)c1
[6]
  Ratio IC50: 5.26
[7]
  CI: 0.09
[8]
  CI: < 0.2
[9]
  CI: < 0.2
[10]
  CI: < 0.2
[11]
  CI: 0.1
[12]
  CI: 0.05
CAL-27 [13]
  Activity: inactive
[14]
  inhibition: Active
[15]
  inhibition: Active

## CN(C)c1ccc(C(=O)N(CC(=O)NCc2ccccc2)Cc2ccc(C(=O)Nc3ccccc3N)cc2)cc1
CAL-27 [16]
  Activity: 9.42%
[17]
  Activity: 32.1%
[18]
  Activity: 8.16%
[19]
  IC50: 1.26 µM
[20]
  CI: 0.39
[21]
  CI: 0.56
[22]
  CI: < 0.2
[23]
  CI: 0.07
[24]
  CI: < 0.2
[25]
  CI: 0.07
[26]
  CI: 0.44
[27]
  CI: 0.04
